For one data set, the target named is GSK3β (Homo sapiens, UniProt P49841). Description: Inhibitory activity against GSK3β (33P-ATP phosphorylation of prephosphorylated GS1 peptide, two protocols). In kind it is biochemical. The note with it: protocol used not stated. How it is done:
Two different protocols can be used. In a first protocol: 7.5 μM of prephosphorylated GS1 peptide and 10 μM ATP (containing 300,000 cpm of ^33P-ATP) were incubated in 25 mM Tris-HCl, pH 7.5, 0.6 mM DTT, 6 mM MgCl2, 0.6 mM EGTA, 0.05 mg/ml BSA buffer for 1 hour at room temperature in the presence of GSK3beta (total reaction volume: 100 microliters). In a second protocol: 4.1 μM of prephosphorylated GS1 peptide and 42 μM ATP (containing 260,000 cpm ^33P-ATP) were incubated in 80 mM Mes-NaOH, pH 6.5, 1 mM Mg acetate, 0.5 mM EGTA, 5 mM 2-mercaptoethanol, 0.02% Tween 20, 10% glycerol buffer for 2 hours at room temperature in the presence of GSK3beta. Inhibitors were solubilized in DMSO (final solvent concentration in the reaction medium, 1%). The reaction was stopped with 100 microliters of a solution made of 25 g polyphosphoric acid (85% P2O5), 126 ml 85% H3PO4, H2O to 500 ml and then diluted to 1:100 before use. An aliquot of the reaction mixture was then transferred to Whatman P81 cation exchange filters and rinsed with the solution described above. Incorporated ^33P radioactivity was determined by liquid scintillation spectrometry. The phosphorylated GS-1 peptide had the following sequence: NH2-[…](P)EDEE-COOH. SEQ ID NO: 1 (Woodgett, J. R. (1989) Analytical Biochemistry 180, 237-241.

The text below walks through data of patent publication US8592436B2, “Arylamide pyrimidone derivatives” (Sanofi, priority 2007, dated 2013).

Chain of GSK3β (P49841 whole entry): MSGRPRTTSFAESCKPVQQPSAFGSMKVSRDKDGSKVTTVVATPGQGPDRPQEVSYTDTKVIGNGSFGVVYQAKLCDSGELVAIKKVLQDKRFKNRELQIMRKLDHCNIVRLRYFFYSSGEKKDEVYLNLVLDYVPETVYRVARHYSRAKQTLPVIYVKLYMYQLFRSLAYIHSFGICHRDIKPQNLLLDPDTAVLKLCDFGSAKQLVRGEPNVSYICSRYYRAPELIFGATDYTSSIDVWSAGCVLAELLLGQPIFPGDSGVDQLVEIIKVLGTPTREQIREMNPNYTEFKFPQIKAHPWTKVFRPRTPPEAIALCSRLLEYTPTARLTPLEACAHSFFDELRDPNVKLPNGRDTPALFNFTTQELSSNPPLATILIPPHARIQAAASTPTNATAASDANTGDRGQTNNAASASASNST

`COc1ccccc1C(=O)NCc1nc(-c2ccncn2)cc(=O)n1C` [compound 1, 2-Methoxy-N-(1-methyl-6-oxo-1,6-dihydro-[4,4′]bipyrimidinyl-2-ylmethyl)-benzamide] showed a melting point of 239 to 241 °C. This compound had a 50% inhibitory concentration (IC50) on GSK3β of 23 nM.
